Reference: PMC8621172, “Manipulating Estrogenic/Anti-Estrogenic Activity of Triphenylethylenes towards Development of Novel Anti-Neoplastic SERMs” (International Journal of Molecular Sciences, 2021)
Where “and” joins values, the source holds several entries; their conditions need not be identical. Equal entries are not always repeated.

How the values were obtained:
human ERα = target: T1, human ERα (Homo sapiens, UniProt P03372); assay: Yeast estrogen screen (YES) assay, agonistic activity (β-galactosidase reporter); type: cell-based; conditions: triplicates; for EC50: YES assay; for Estrogenic Activity (relative β-galactosidase activity): compounds at 1 µM, compared to DMSO (set as 1)
T1 construct: host or cells: Saccharomyces cerevisiae
T1 sequence (P03372 1-595): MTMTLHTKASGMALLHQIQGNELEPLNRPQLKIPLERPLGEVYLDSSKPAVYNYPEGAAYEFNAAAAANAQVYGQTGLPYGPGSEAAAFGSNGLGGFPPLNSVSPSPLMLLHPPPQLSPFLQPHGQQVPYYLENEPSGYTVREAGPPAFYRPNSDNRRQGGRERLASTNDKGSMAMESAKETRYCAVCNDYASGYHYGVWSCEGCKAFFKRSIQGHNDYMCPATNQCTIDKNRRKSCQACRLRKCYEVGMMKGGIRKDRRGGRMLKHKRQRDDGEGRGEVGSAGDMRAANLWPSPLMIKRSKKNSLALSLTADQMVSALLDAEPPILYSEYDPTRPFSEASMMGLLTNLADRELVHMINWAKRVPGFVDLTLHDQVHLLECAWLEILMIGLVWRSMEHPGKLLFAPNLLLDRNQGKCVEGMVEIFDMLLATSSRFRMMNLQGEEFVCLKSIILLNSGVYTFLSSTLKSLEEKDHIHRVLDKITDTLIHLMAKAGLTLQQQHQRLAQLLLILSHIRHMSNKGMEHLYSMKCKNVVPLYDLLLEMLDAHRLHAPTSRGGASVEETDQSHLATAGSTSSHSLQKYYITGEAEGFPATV
Description: All synthesized compounds were tested for their relative activity in β-galactosidase in a yeast estrogen screen (YES) assay. Compounds were tested for their relative estrogenic/anti-estrogenic activities in comparison to positive and negative controls, respectively. YES assay is a gene reporter assay where the DNA sequence of human ERα is integrated into the yeast genome completed with an expression plasmid carrying estrogen response elements (ERE) in the promoter controlling the expression of the reporter gene lacZ (encoding the enzyme β-galactosidase). In the presence of estrogenic compounds, β-galactosidase is synthesized and secreted into the medium, where it converts the chromogenic substrate chlorophenol red-β-D-galactopyranoside (CRPG) from a yellow to a red product, whose absorbance is measured. […] Therefore, we decided to test the novel compounds in an organ-specific in vitro model using the human Ishikawa endometrial adenocarcinoma cell line.
All synthesized compounds were tested for their relative β-galactosidase activity in a yeast estrogen screen (YES) assay at a concentration of 1 µM using DMSO as control (set as 1).
The yeast estrogen receptor assay was supplied by Dr. J.P. Sumpter (Brunel University, Uxbridge, UK) and was used to determine the relative transactivation activity of the human ERα as formerly described. Briefly, Saccharomyces cerevisiae stably transfected with a human ERα and an estrogen-responsive element fused to the reporter gene lacZ encoding for β-galactosidase were treated with the test substances for about 48 h. The β-galactosidase enzymatic activity was measured in a colorimetric assay using a microplate photometer by hydrolysis of the substrate chlorophenol red β-D-galactopyranoside (Roche Diagnostics, Mannheim, Germany), which leads to the formation of chlorophenol red. This can be measured as an increased absorption at 540 nm. All compounds were diluted in DMSO. […] All compounds were tested in technical quadruplicates and biological triplicates. Statistical analysis was performed by analysis of variance (ANOVA) and Tukey’s post-hoc test with the significance level of p < 0.05.

60 NCI tumor cell lines = assay: NCI-60 single-dose growth inhibition screen (SRB); type: cell-based, human; conditions: for anti-proliferative activity (in words): 10 µM, NCI-60 panel and MCF-7; for inhibition at 10 µM: Homo sapiens, mean over 60 NCI tumor cell lines
Description: The anti-proliferative effects of the novel analogs were tested in vitro by the National Cancer Institute (NCI) on a panel of 60 human tumor cell lines at 10 µM. Compounds that elicited mean growth inhibition ≥50% were selected by the NCI for 5-dose testing.
Compounds were submitted to the Developmental Therapeutics Program (DTP) of the National Cancer Institute (NCI). The program uses a panel of 60 human tumor cell lines representing nine tissue types, including leukemia, non-small cell lung cancer (NSCLC), melanoma, colon cancer, ovarian cancer, CNS cancer, renal cancer, prostate cancer, and breast cancer, to screen for potential new anti-cancer agents. […] Primary screening of synthesized compounds was performed by testing a single high dose of 10 µM in the full NCI-60 panel. The percent growth of treated cells relative to the no-drug control and relative to the time zero number of cells was measured, and a mean graph was provided. The percentage inhibition was then calculated by subtracting the values obtained from 100.
All compounds were subjected to the NCI in vitro disease-oriented human cells screening panel assay. The human tumor cell lines of the cancer-screening panel are grown in RPMI 1640 medium containing 5% fetal bovine serum and 2 mM L-glutamine. For a typical screening experiment, cells are inoculated into 96-well microtiter plates in 100 μL at plating densities ranging from 5000 to 40,000 cells/well depending on the doubling time of individual cell lines. After cell inoculation, the microtiter plates are incubated at 37 °C, 5% CO2, 95% air, and 100% relative humidity for 24 h prior to the addition of experimental drugs. After 24 h, two plates of each cell line are fixed in situ with TCA to represent a measurement of the cell population for each cell line at the time of drug addition. Experimental drugs are solubilized in dimethyl sulfoxide at 400-fold the desired final maximum test concentration and stored frozen prior to use. At the time of drug addition, an aliquot of frozen concentrate is thawed and diluted to twice the desired final maximum test concentration with complete medium containing 50 μg/mL gentamicin. Additional four, 10-fold, or ½ log serial dilutions are made to provide a total of five drug concentrations plus control. Aliquots of 100 μL of these different drug dilutions are added to the appropriate microtiter wells already containing 100 μL of medium, resulting in the required final drug concentrations. Following drug addition, the plates are incubated for an additional 48 h at 37 °C, 5% CO2, 95% air, and 100% relative humidity. For adherent cells, the assay is terminated by the addition of cold TCA. Cells are fixed in situ by the gentle addition of 50 μL of cold 50% (w/v) TCA (final concentration, 10% TCA) and incubated for 60 min at 4 °C. The supernatant is discarded, and the plates are washed five times with tap water and air-dried. Sulforhodamine B (SRB) solution (100 μL) at 0.4% (w/v) in 1% acetic acid is added to each well, and plates are incubated for 10 min at room temperature. After staining, unbound dye is removed by washing five times with 1% acetic acid, and the plates are air-dried. Bound stain is subsequently solubilized with a 10 mM trizma base, and the absorbance is read on an automated plate reader at a wavelength of 515 nm. For suspension cells, the methodology is the same except that the assay is terminated by fixing settled cells at the bottom of the wells by gently adding 50 μL of 80% TCA (final concentration, 16% TCA). Compounds are screened at a dose of 10 µM, hits showing mean growth inhibition over 60 cell lines >50% are escalated for 5-dose screening assay.

EC50 (human ERα)	Estrogenic Activity (relative β-galactosidase activity) (human ERα)	SMILES	anti-proliferative activity (in words) (60 NCI tumor cell lines)	inhibition at 10 µM (60 NCI tumor cell lines)
	11.61 and 11.61 ± 0.99	COc1ccc(C(C)=C(c2ccc(Cl)cc2)c2ccc(OCCCN(C)C)cc2)cc1 [Compound 10, E/Z-(3-{4-[1-(4-Chloro-phenyl)-2-(4-methoxy-phenyl)-propenyl]-phenoxy}-propyl)-dimethyl-amine]		33.4%
	1.98 ± 0.12	COc1ccc(C(C)=C(c2ccc(Cl)cc2)c2ccc(OCCN3CCCC3)cc2)cc1 [Compound 11, E/Z-1-(2-{4-[1-(4-Chloro-phenyl)-2-(4-methoxy-phenyl)-propenyl]-phenoxy}-ethyl)-pyrrolidine]		67.8%
	3.65 ± 0.70	COc1ccc(C(C)=C(c2ccc(Cl)cc2)c2ccc(OCCN3CCCCC3)cc2)cc1 [Compound 12, E/Z-1-(2-{4-[1-(4-Chloro-phenyl)-2-(4-methoxy-phenyl)-propenyl]-phenoxy}-ethyl)-piperidine]		55.2%
	12.41 and 12.41 ± 0.26	COc1ccc(C(C)=C(c2ccc(Cl)cc2)c2ccc(OCCN3CCOCC3)cc2)cc1 [Compound 13, E/Z-4-(2-{4-[1-(4-Chloro-phenyl)-2-(4-methoxy-phenyl)-propenyl]-phenoxy}-ethyl)-morpholine]	lacked anti-proliferative activity	7.86%
	1.80 ± 0.09	COc1ccc(C(C)=C(c2ccc(Cl)cc2)c2ccc(OCCN3CCCCCC3)cc2)cc1 [Compound 14, E/Z-1-(2-{4-[1-(4-Chloro-phenyl)-2-(4-methoxy-phenyl)-propenyl]-phenoxy}-ethyl)-azepane]		47.3%
440 ± 10 nM	7.77 and 7.77 ± 1.9	COc1ccc(C(C)=C(c2ccc(Cl)cc2)c2ccc(OCCCN(C)C)cc2)cc1F [Compound 15, E/Z-(3-{4-[1-(4-Chlorophenyl)-2-(3-fluoro-4-methoxyphenyl)-propenyl]-phenoxy}-propyl)-dimethyl-amine]		47.9%
	2.19 ± 0.71	COc1ccc(C(C)=C(c2ccc(Cl)cc2)c2ccc(OCCN3CCCC3)cc2)cc1F [Compound 16, E/Z-1-(2-{4-[1-(4-Chlorophenyl)-2-(3-fluoro-4-methoxyphenyl)-propenyl]-phenoxy}-ethyl)-pyrrolidine]		77.2%
252 ± 8 nM	7.28 and 7.28 ± 3.10	COc1ccc(C(C)=C(c2ccc(Cl)cc2)c2ccc(OCCN3CCCCC3)cc2)cc1F [Compound 17, E/Z-1-(2-{4-[1-(4-Chlorophenyl)-2-(3-fluoro-4-methoxyphenyl)-propenyl]-phenoxy}-ethyl)-piperidine]		69.1%
	1.76 ± 0.56	COc1ccc(C(C)=C(c2ccc(Cl)cc2)c2ccc(OCCN3CCOCC3)cc2)cc1F [Compound 18, E/Z-4-(2-{4-[1-(4-Chlorophenyl)-2-(3-fluoro-4-methoxyphenyl)-propenyl]-phenoxy}-ethyl)-morpholine]	lacked anti-proliferative activity	4.23%

Further lines, the molecule ahead of its results:

SMILES	EC50 (human ERα)	Estrogenic Activity (relative β-galactosidase activity) (human ERα)	anti-proliferative activity (in words) (60 NCI tumor cell lines)	inhibition at 10 µM (60 NCI tumor cell lines)
COc1ccc(C(C)=C(c2ccc(O)cc2)c2ccc(Cl)cc2)cc1F [Compound 3, E/Z-4-[1-(4-Chlorophenyl)-2-(3-fluoro-4-methoxyphenyl)propenyl]-phenol]	40 nM and 40.1 nM	12.83 ± 2.72	lacked anti-proliferative activity	2.34%
COc1cc(C(C)=C(c2ccc(O)cc2)c2ccc(Cl)cc2)ccc1F [Compound 4, E/Z-4-[1-(4-Chlorophenyl)-2-(4-fluoro-3-methoxyphenyl)propenyl]-phenol]	258 ± 80 nM	6.62 ± 1.74	lacked anti-proliferative activity	15.4%
CC(=C(c1ccc(Cl)cc1)c1ccc(OCCCN(C)C)cc1)c1ccccc1 [Compound 5, E/Z-(3-{4-[1-(4-Chloro-phenyl)-2-phenyl-propenyl]-phenoxy}-propyl)-dimethyl-amine]		2.25 ± 0.92		15.4%
CC(=C(c1ccc(Cl)cc1)c1ccc(OCCN2CCCC2)cc1)c1ccccc1 [Compound 6, E/Z-1-(2-{4-[1-(4-Chloro-phenyl)-2-phenyl-propenyl]-phenoxy}-ethyl)-pyrrolidine]		2.88 ± 0.89		37.8%
CC(=C(c1ccc(Cl)cc1)c1ccc(OCCN2CCCCC2)cc1)c1ccccc1 [Compound 7, E/Z-1-(2-{4-[1-(4-Chloro-phenyl)-2-phenyl-propenyl]-phenoxy}-ethyl)-piperidine]		2.87 ± 0.90		29%
CC(=C(c1ccc(Cl)cc1)c1ccc(OCCN2CCOCC2)cc1)c1ccccc1 [Compound 8, E/Z-4-(2-{4-[1-(4-Chloro-phenyl)-2-phenyl-propenyl]-phenoxy}-ethyl)-morpholine]		1.85 ± 0.11	lacked anti-proliferative activity	9.4%
CC(=C(c1ccc(Cl)cc1)c1ccc(OCCN2CCCCCC2)cc1)c1ccccc1 [Compound 9, E/Z-1-(2-{4-[1-(4-Chloro-phenyl)-2-phenyl-propenyl]-phenoxy}-ethyl)-azepane]		6.74 and 6.74 ± 1.67		25.4%
